Source: patent US9845471B2, “Compositions and methods for treating pancreatic cancer” (Fred Hutchinson Cancer Research Center, priority 2013, dated 2017)

How the values were obtained:
Runx3 [1] = experiment: Runx3 immunoblot after histone deacetylase inhibitor treatment; format: cell-based, murine; conditions: KPD carcinoma cells; TSA at 0, 10, or 40 μM; 48 hours of treatment
Description: To directly test of this potential involvement of Hdac5 in the post-translational control mechanism of Runx3, a histone deacetylase inhibitor was used to determine whether Runx3 levels increased when deacetylation of Runx3 by Hdac5 was minimized or abrogated (i.e., whether the acetylation level of Runx3 does in fact affect physiologic degradation). Briefly, cells (4×10^5) were plated in 60 cc dishes and trichostatin A (TSA) (Tocris Biosciences, MO, USA), an Hdac5 inhibitor, was added at 0, 10, or 40 μM at 24 hours. Total RNA or whole cell lysates were prepared as described herein after 48 hours of treatment, and the latter resolved on 4-12% Bis-Tris gels, transferred to PVDF and probed with Runx3 antibody.

[2] = tested on: Runx3 complexes with Smad2 and Smad4; experiment: Smad2 immunoprecipitation of Runx3 complexes, KPD; format: cell-based, murine; conditions: KPD cells, incubated with TGFβ prior to lysis
Description: (§1) To examine whether the transcriptional activity of Runx3 was exercised in complex with Smad4/Dpc4, immunoprecipitation assays were performed. Briefly, cells were lysed by sonication in 20 mM HEPES (pH 7.5), 400 mM KCl, 5% Glycerol, 5 mM EDTA, 0.4% Np40, supplemented with 1×protease inhibitor (Sigma, MO, USA), phosphotase inhibitor cocktails I and II (Sigma, MO, USA), and the lysates cleared by centrifugation. Extracts were diluted to 20 mM HEPES (pH 7.8), 50 mM KCl, 5% Glycerol, 2.5 mM MgCl2, 0.05% NP40 and incubated with Smad2 antibody (2.5 μg/ml from AbCam, Cambridge Mass., USA) and Protein A-Sepharose beads for 4 hours at 4° C. Beads were washed and co-purified proteins liberated in boiling Laemmli buffer and analyzed by immunoblot with the appropriate primary antibody. ExactaCruz secondary antibodies (Santa Cruz biotechnology) were used to reduce background from IgG.

[3] = tested on: KPD primary carcinoma cells; experiment: Scratch wound migration assay, KPD; format: cell-based, murine
Description: (§2) In addition to examining EMT, carcinoma cells were examined for their ability to migrate. For migration assays, cells were first incubated in the presence or absence of TGFβ (5 ng/ml) for 60 hours to achieve growth arrest (in order to separate out effects of proliferation rather than migration; see Izeradjene et al., 2007), then serum starved for 8 hours. Confluent cultures were scratched with a 20 μl pipette tip to generate a wound in three horizontal stripes per well; each experimental condition was performed in triplicate wells. All experiments were conducted in triplicate at least 3 independent times on at least 2 different cell lines from each genetic background. A minimum of six points across each wound were assessed independently by two investigators at the indicated time intervals for the presence of cells within the expanse. Representative photographs were taken from a minimum of 6-8 separate high power fields. […]
(§3) Dpc4 expression was knocked down using a short hairpin RNA (shRNA) sequence (GAUUAACACUGCAGAGUAA, SEQ ID NO.: 19) targeting murine DPC4 procured in a pGIPZ vector (Open Biosystems). […] DPC4 transcript levels in murine cell lines were analyzed by qRT-PCR using the Taq-man assay per the manufacturer's recommendations (Applied Biosystems, CA, USA) with GAPHD as an internal control.

[4] = tested on: Runx3 complexes with Smad2 and Smad4; experiment: Smad2 immunoprecipitation of Runx3 complexes, KP; format: cell-based, murine; conditions: KP cells, incubated with TGFβ prior to lysis
Description: as §1

KPD PDA cells = experiment: EMT immunofluorescence (actin stress fibers, E-cadherin), KPD; format: cell-based, murine
Description: First, KPD pancreas cancer cells were probed by immunofluorescence for their ability to undergo epithelial-to-mesenchymal transition (EMT), a program of morphological and molecular changes implicated in the metastatic phenotype. Briefly, cells were grown on glass cover slips and treated for 72 hours in the presence or absence of TGFβ (5 ng/ml); media was replaced every 24 hours. For E-cadherin immunofluorescence, cells were fixed in ice cold methanol:acetone (1:1) for 15 minutes. For F-actin IF, cells were fixed in 4% paraformaldehyde for 30 minutes at RT followed by brief rinse in 0.15M glycine to quench the PFA. After fixation, the cells were washed with PBS and blocked for 1 hour at RT with 2% fatty acid-free BSA/2.5% goat serum. Cells were incubated with E-cadherin primary antibody (1:200, BD Biosciences) or Alexafluor488 F-actin (1:1000) for 1 hour at RT. Alexafluor 488 secondary antibody was used to visualize E-cadherin antibody. Cells were counterstained with DAPI and the slips mounted with Prolong Gold Anti-fade (Invitrogen, CA, USA). Images were acquired using a Nikon Eclipse 80i microscope with NIS Elements Software (Nikon, v3.1).

MiaPaCa-2 cells = experiment: Scratch wound migration assay, MiaPaCa-2; format: cell-based, human; conditions: TGFβ
Description: (§4) In addition to examining EMT, carcinoma cells were examined for their ability to migrate. For migration assays, cells were first incubated in the presence or absence of TGFβ (5 ng/ml) for 60 hours to achieve growth arrest (in order to separate out effects of proliferation rather than migration; see Izeradjene et al., 2007), then serum starved for 8 hours. Confluent cultures were scratched with a 20 μl pipette tip to generate a wound in three horizontal stripes per well; each experimental condition was performed in triplicate wells. All experiments were conducted in triplicate at least 3 independent times on at least 2 different cell lines from each genetic background. A minimum of six points across each wound were assessed independently by two investigators at the indicated time intervals for the presence of cells within the expanse. Representative photographs were taken from a minimum of 6-8 separate high power fields. For all assays, media was replaced every 24 hours with or without TGFβ and photographed every 24 hours.
(§5) As an initial analysis, the human pancreas cancer cell lines were tested in the scratch wound migration assay described herein. The basal levels of RUNX3 in these human PDA cell lines correlated with their migratory potential, as MiaPaCa-2 cells migrated far less well than CFPAC-1 and Panc-1 cells (FIG. 9B). […]

Panc-1 cells [5] = experiment: Scratch wound migration assay, Panc-1; format: cell-based, human
Description: as §4, §5

CFPAC-1 cells = experiment: Scratch wound migration assay, CFPAC-1; format: cell-based, human; conditions: CFPAC1 cells
Description: as §4, §5

KP PDA cells = experiment: EMT immunofluorescence (actin stress fibers, E-cadherin), KP; format: cell-based, murine
KPD cells [6] = experiment: Cell proliferation assay; format: cell-based, murine; conditions: TGFβ 5 ng/ml
Description: For immunocytochemistry, the primary antibody used was Ki-67 (1:25, Dako, Calif., USA), which is a marker of proliferating cells. For cell proliferation assays, equal numbers of murine or human cells (30,000) were plated in triplicate for each cell line and incubated in the presence or absence of TGFβ (5 ng/ml, R&D Systems, USA). Cells were counted manually at 24 hour intervals. Data points represent the mean±SEM of triplicate determinations from at least 3 independent experiments. All experiments were conducted in triplicate at least 3 independent times on at least 2 different cell lines from each genetic background. Representative photographs were taken from a minimum of 6-8 separate high power fields. For all assays, media was replaced every 24 hours with or without TGFβ and photographed every 24 hours.

[7] = tested on: KP primary carcinoma cells; experiment: Scratch wound migration assay, KP; format: cell-based, murine
Description: as §2, §3

Panc-1 cells [8] = experiment: Pulmonary metastasis assay in NOD/SCID mice; format: in vivo
Description: (§6) Purified KP and KPD carcinoma cells were also injected into the circulation of immunocompromised mice and scored for their ability to form pulmonary metastases. Briefly, murine cells were studied in a classical tail vein metastasis assay in nude mice (Athymic NCr-nu/nu). At least 3 animals were injected (1×10^5 or 1×10^6 cells/injection, depending on the experiment) for each independently derived cell line and all experiments were performed at least twice. […] Metastatic disease burdens were assessed as a ratio of cross-sectional area occupied by tumor to whole lung area using ImageJ software (NIH).
(§7) Human RUNX3 was cloned into pBABE hygromycin vector and stable RUNX3 expressing HEK293T cells were prepared using a similar protocol to that used to make the murine version. Also, shRNA sequences targeting human RUNX3 to knock down expression were procured in pGIPZ vectors (Open Biosystems). High-titer lentivirus was made and PDA cells were infected and selected for stable expression of the […] shRNA (SEQ ID NO.: 20, CGGCAGAAGCUGGAGGACC). Knockdown was confirmed by qRT-PCR.
To determine whether overexpression of RUNX3 in human PDA cells also promotes metastasis, pulmonary metastasis assays were performed using NOD/SCID mice.

COL6A1 = COL6A1 expression by qRT-PCR; format: cell-based, human; conditions: shRUNX3 transfected Panc-1 cells vs scrambled
Description: as §7
Transcript levels in Runx3-overexpressing carcinoma cells were determined using qRT-PCR as described herein. The Spp1 mouse forward and reverse primers used were SEQ ID NO.:5 ([…]) and SEQ ID NO.:6 ([…]), respectively; the Col6A1 mouse forward and reverse primers were SEQ ID NO.:7 (CTGCTGCTACAAGCCTGCT) and SEQ ID NO.:8 (CTGCTGCTACAAGCCTGCT), respectively; and the COL6A1 human forward and reverse primers were SEQ ID NO.:9 ([…]) and SEQ ID NO.:10 ([…]), respectively.

KP cells = experiment: Tail vein pulmonary metastasis assay in nude mice, KP cells; format: in vivo, nude mice (Athymic NCr-nu/nu); conditions: KP cells with Dpc4 extinguished, tail vein injection
Description: as §6
as §3, with “Biosystems). A control sequence (scrambled, scr) was used as a negative control. High-titer lentivirus was made and PDA cells were infected and selected for stable expression of the DPC4-specific shRNA. Knockdown was confirmed by qRT-PCR.” for “Biosystems).”

Runx3 [9] = experiment: Runx3 immunoblot after targeted depletion of Smad4; format: cell-based, murine; conditions: KPD cells; converse of the increase seen with Smad4 over-expression
Description: For immunoblot analysis, whole cell lysates were prepared using 1×RIPA buffer (Millipore, CA, USA) supplemented with 1×protease inhibitor (Sigma, MO, USA) and phosphotase inhibitor cocktails I and II (Sigma, MO, USA). For immunoblot experiments, 20 μg (murine) or 30 μg (human) whole cell protein lysate were separated on a 4-12% Bis-tris gel system (Invitrogen, CA, USA) and transferred to PVDF membrane (Millipore, CA, USA). Primary antibodies used were Dpc4, p16, p19, Actin (all at 1:2000, Santa Cruz, Calif., USA), and p53 (1:1000, Vector Lab, CA, USA).
(§8) Dpc4 expression was knocked down using a short hairpin RNA (shRNA) sequence (GAUUAACACUGCAGAGUAA, SEQ ID NO.: 19) targeting murine DPC4 procured in a pGIPZ vector (Open Biosystems). A control sequence (scrambled, scr) was used as a negative control. High-titer lentivirus was made and PDA cells were infected and selected for stable expression of the DPC4-specific shRNA. Knockdown was confirmed by qRT-PCR. Briefly, total RNA was reverse transcribed using the high capacity cDNA synthesis kit (Applied Biosystems, CA, USA) and qRT-PCR performed using SYBER green supermix (Bio-Rad, VA, USA) on a CFX-96 thermal cycler. […] DPC4 transcript levels in murine cell lines were analyzed by qRT-PCR using the Taq-man assay per the manufacturer's recommendations (Applied Biosystems, CA, USA) with GAPHD as an internal control.

KPD cells [10] = experiment: Tail vein pulmonary metastasis assay in nude mice, KPD cells; format: in vivo, nude mice (Athymic NCr-nu/nu); conditions: KPD cells with complete knockdown of Dpc4, tail vein injection
Description: as §6
as §8, with “qRT-PCR.” for “qRT-PCR. Briefly, total RNA was reverse transcribed using the high capacity cDNA synthesis kit (Applied Biosystems, CA, USA) and qRT-PCR performed using SYBER green supermix (Bio-Rad, VA, USA) on a CFX-96 thermal cycler.”

`CC(/C=C/C(=O)NO)=C\[C@@H](C)C(=O)c1ccc(N(C)C)cc1` [TSA, trichostatin A] was tested, and the “levels of Runx3 (immunoblot)” value (Runx3 [1]) was “raise levels of Runx3 to approximately those found in KP cells”.
In the case of TGFβ, the Runx3/Smad2/Smad4 complex formation [2] is reported as “inhibit it”, the migration ([3]; TGFβ 5 ng/ml) is reported as “did not respond in kind” and the Runx3/Smad2/Smad4 complex formation [4] is reported as “favor complex formation”. For the same compound, the “EMT (actin stress fibers, surface E-cadherin)” value (KPD PDA cells; KPD PDA cells, TGFβ 5 ng/ml, 72 hours) was “EMT is essentially intact”, the migration (MiaPaCa-2 cells) was “modestly inhibited the migration” and the migration (Panc-1 cells [5]; TGFβ) was “promoted or left unaffected”. The migration (CFPAC-1 cells; TGFβ) was “promoted or left unaffected”, the EMT (KP PDA cells; TGFβ 5 ng/ml, 72 hours) was “readily underwent TGFβ-induced EMT” and the “growth arrest (proliferation)” value (KPD cells [6]) was “only partially growth-arrested”. For the same compound, the migration ([7]; TGFβ 5 ng/ml) was “stimulated”.
“shRUNX3: shRNA targeting human RUNX3 (SEQ ID NO.: 20, CGGCAGAAGCUGGAGGACC) in pGIPZ vector, delivered by lentivirus” was tested, and the liver weights (Panc-1 cells [8]; NOD/SCID mice injected with RUNX3 knockdown Panc-1 cells, n=3) was 0.53 ± 0.06 g, the “ability to seed and support secondary metastases to the liver” value (Panc-1 cells [8]; RUNX3-depleted Panc-1 cells in NOD/SCID mice) was “considerably decreased” and the “number of lung metastases” value (Panc-1 cells [8]; RUNX3-knockdown vs control Panc-1 cells in NOD/SCID mice) was “comparable number of lung metastases”. For the same compound, the COL6A1 transcript levels (COL6A1) was “reduces COL6A1 transcript levels”, the migration (Panc-1 cells [5]; stable RUNX3-specific shRNA) was “inhibited their migration” and the migration (CFPAC-1 cells; stable RUNX3-specific shRNA) was “inhibited their migration”.
For “shDpc4: short hairpin RNA (GAUUAACACUGCAGAGUAA, SEQ ID NO.: 19) targeting murine DPC4 in a pGIPZ vector”, the metastatic potential (KP cells) was “did not diminish their already considerable metastatic potential”, the basal migratory behavior ([3]; complete ablation of Dpc4 expression by shRNA) was “increased their basal migratory behavior modestly” and the “Runx3 levels (immunoblot)” value (Runx3 [9]) was “had the converse effect”. The “EMT in response to TGFβ” value (KPD PDA cells; KPD carcinoma cells, complete loss of Dpc4 expression by shRNA) was “some morphological features of EMT in response to TGFβ also persisted”, the “EMT in response to TGFβ” value (KP PDA cells; late ablation of Dpc4 by shRNA) was “did not completely prevent EMT” and the metastatic potential (KPD cells [10]) was “enhanced their metastatic potential”. For the same compound, the migration ([7]; Dpc4 depleted by shRNA) was “migration increased slightly”.
